In patent US20140094424A1, “MICROBICIDAL COMPOSITIONS AND METHODS OF PRODUCTION USE THEREOF” (priority 2011, published 2014):
Where two headings read alike, the source gives them in different places.

Legend:
[1] = test system: Penicillium notatum-KMO (R); experiment: MBC (minimum bactericidal concentration) test in Wash NEXT reagent; format: cell-based; parameters: key to MBC test growth score: number = actual colony count; + full mat, − no growth
Protocol: (§1) The stock organisms were thawed and subbed prior to beginning the MBC test. Molds were subbed to SDA plates one week before, and the bacteria were subbed to TAT agar plates 24 hours prior to the start of the test. All plates were incubated at 32 degrees C.
For the molds, each organism was inoculated into 40 ml sterile saline in a centrifuge tube to create a density of MacFarland #5. Two serial dilutions of 1:100 were then made, resulting in 10^−2 and 10^−4 concentrations. Each dilution was vortexed before it was sampled, and sterile Eppendorf pipette tips were used to make each transfer. The 10^−4 dilution was spiral plated to yield the initial inoculum concentration.
(§2) MBC trays were set up with the prepared test reagent. Using a Matrix pipettor, 100 μl aliquots of reagent were distributed into the wells, diluting the amount of preservative from 100% to 10% increments, using unpreserved reagent as the diluent. In one row, 100% non-preserved reagent acted as a positive control and served as a benchmark for a full mat of growth. In well #12H, 100 μl unpreserved reagent was pipetted, and this well was not inoculated with organisms, as it served as the negative control. Once all of the trays were prepared, the prepared bacteria/mold suspensions were poured into the MBC inoculating trays. These were placed onto the reagent trays, and 0.01 ml inoculum was introduced into the 100 μl of reagent in each well.
(§3) This was done by dipping a sterile cotton swab into each well, and absorbing all of the liquid in the well. The swab was rolled onto a TAT agar plate ensuring that the entire swab touches the agar. Plates ware incubated at 32 degrees C. for 48 hours to 7 days, depending on the organism. Observations for growth were performed by a scoring matrix using + for a full mat, +/− for some growth, a numerical value for an actual colony count, and—for no growth.
(§4) Below are tables that contain the data obtained in Example 1. The MBC test is scored by (+) indicating a full grown mat of organisms, equivalent to the organisms in the unpreserved reagent. (+/−) indicates there is some kill evident disturbing that mat or bringing the quantities down to an almost countable level. An actual number is the actual number of colonies growing at that concentration of preservative. (−) indicates no growth found. The MBC trays were stored at room temperature for the entire test.
(§5) The materials and methods and analysis of the MBC test were the same as in Example 1.

Ralstonia pickettii (AU) = format: cell-based
Protocol: as §1
Each bacterial organism was inoculated into 40 ml sterile saline in a centrifuge tube to create a density of MacFarland #1. Two serial dilutions of 1:100 were then made, resulting in 10^−2 and 10^−4 concentrations. Each dilution was vortexed before it was sampled, and sterile Eppendorf pipette tips were used to make each transfer. The 10^−4 dilution was spiral plated to yield the initial inoculum concentration.
as §2, §3, §4, §5

gentamicin
MBC test growth score ([1]; 10% preservative, 8 hour): +
MBC test growth score ([1]; 10% preservative, 24 hour): +
MBC test growth score ([1]; 10% preservative, 48 hour): +/−
MBC test growth score ([1]; 10% preservative, 72 hour): +/−
MBC test growth score ([1]; 10% preservative, 7 day): +/−
MBC test growth score ([1]; 10% preservative, 14 day): +/−
MBC test growth score ([1]; 20% preservative, 8 hour): +
MBC test growth score ([1]; 20% preservative, 24 hour): +
MBC test growth score ([1]; 20% preservative, 48 hour): +/−
MBC test growth score ([1]; 20% preservative, 72 hour): +/−
MBC test growth score ([1]; 20% preservative, 7 day): +/−
MBC test growth score ([1]; 20% preservative, 14 day): +/−
MBC test growth score ([1]; 30% preservative, 8 hour): +
MBC test growth score ([1]; 30% preservative, 24 hour): +
MBC test growth score ([1]; 30% preservative, 48 hour): +/−
MBC test growth score ([1]; 30% preservative, 72 hour): +/−
MBC test growth score ([1]; 30% preservative, 7 day): +/−
MBC test growth score ([1]; 30% preservative, 14 day): +/−
MBC test growth score ([1]; 40% preservative, 8 hour): +
MBC test growth score ([1]; 40% preservative, 24 hour): +
MBC test growth score ([1]; 40% preservative, 48 hour): +/−
MBC test growth score ([1]; 40% preservative, 72 hour): +/−
MBC test growth score ([1]; 40% preservative, 7 day): +/−
MBC test growth score ([1]; 40% preservative, 14 day): 28
MBC test growth score ([1]; 50% preservative, 8 hour): +
MBC test growth score ([1]; 50% preservative, 24 hour): +
MBC test growth score ([1]; 50% preservative, 48 hour): +/−
MBC test growth score ([1]; 50% preservative, 72 hour): +/−
MBC test growth score ([1]; 50% preservative, 7 day): +/−
MBC test growth score ([1]; 50% preservative, 14 day): 25
MBC test growth score ([1]; 60% preservative, 8 hour): +
MBC test growth score ([1]; 60% preservative, 24 hour): +
MBC test growth score ([1]; 60% preservative, 48 hour): +/−
MBC test growth score ([1]; 60% preservative, 72 hour): +/−
MBC test growth score ([1]; 60% preservative, 7 day): +/−
MBC test growth score ([1]; 60% preservative, 14 day): 23
MBC test growth score ([1]; 70% preservative, 8 hour): +
MBC test growth score ([1]; 70% preservative, 24 hour): +
MBC test growth score ([1]; 70% preservative, 48 hour): +/−
MBC test growth score ([1]; 70% preservative, 72 hour): +/−
MBC test growth score ([1]; 70% preservative, 7 day): 23
MBC test growth score ([1]; 70% preservative, 14 day): 18
MBC test growth score ([1]; 80% preservative, 8 hour): +
MBC test growth score ([1]; 80% preservative, 24 hour): +
MBC test growth score ([1]; 80% preservative, 48 hour): +/−
MBC test growth score ([1]; 80% preservative, 72 hour): +/−
MBC test growth score ([1]; 80% preservative, 7 day): 16
MBC test growth score ([1]; 80% preservative, 14 day): 12
MBC test growth score ([1]; 90% preservative, 8 hour): +
MBC test growth score ([1]; 90% preservative, 24 hour): +
MBC test growth score ([1]; 90% preservative, 48 hour): +/−
MBC test growth score ([1]; 90% preservative, 72 hour): +/−
MBC test growth score ([1]; 90% preservative, 7 day): 11
MBC test growth score ([1]; 90% preservative, 14 day): 9
MBC test growth score ([1]; 100% preservative, 8 hour): +
MBC test growth score ([1]; 100% preservative, 24 hour): +
MBC test growth score ([1]; 100% preservative, 48 hour): +/−
MBC test growth score ([1]; 100% preservative, 72 hour): +/−
MBC test growth score ([1]; 100% preservative, 7 day): 7
MBC test growth score ([1]; 100% preservative, 14 day): 6
MBC test growth score (Ralstonia pickettii (AU); 10% preservative, 8 hour): −
MBC test growth score (Ralstonia pickettii (AU); 10% preservative, 24 hour): −
MBC test growth score (Ralstonia pickettii (AU); 10% preservative, 48 hour): −
MBC test growth score (Ralstonia pickettii (AU); 10% preservative, 72 hour): −
MBC test growth score (Ralstonia pickettii (AU); 20% preservative, 8 hour): −
MBC test growth score (Ralstonia pickettii (AU); 20% preservative, 24 hour): −
MBC test growth score (Ralstonia pickettii (AU); 20% preservative, 48 hour): −
MBC test growth score (Ralstonia pickettii (AU); 20% preservative, 72 hour): −
MBC test growth score (Ralstonia pickettii (AU); 30% preservative, 8 hour): −
MBC test growth score (Ralstonia pickettii (AU); 30% preservative, 24 hour): −
MBC test growth score (Ralstonia pickettii (AU); 30% preservative, 48 hour): −
MBC test growth score (Ralstonia pickettii (AU); 30% preservative, 72 hour): −
MBC test growth score (Ralstonia pickettii (AU); 40% preservative, 8 hour): −
MBC test growth score (Ralstonia pickettii (AU); 40% preservative, 24 hour): −
MBC test growth score (Ralstonia pickettii (AU); 40% preservative, 48 hour): −
MBC test growth score (Ralstonia pickettii (AU); 40% preservative, 72 hour): −
MBC test growth score (Ralstonia pickettii (AU); 50% preservative, 8 hour): −
MBC test growth score (Ralstonia pickettii (AU); 50% preservative, 24 hour): −
MBC test growth score (Ralstonia pickettii (AU); 50% preservative, 48 hour): −
MBC test growth score (Ralstonia pickettii (AU); 50% preservative, 72 hour): −
MBC test growth score (Ralstonia pickettii (AU); 60% preservative, 8 hour): −
MBC test growth score (Ralstonia pickettii (AU); 60% preservative, 24 hour): −
MBC test growth score (Ralstonia pickettii (AU); 60% preservative, 48 hour): −
MBC test growth score (Ralstonia pickettii (AU); 60% preservative, 72 hour): −
MBC test growth score (Ralstonia pickettii (AU); 70% preservative, 8 hour): −
MBC test growth score (Ralstonia pickettii (AU); 70% preservative, 24 hour): −
MBC test growth score (Ralstonia pickettii (AU); 70% preservative, 48 hour): −
MBC test growth score (Ralstonia pickettii (AU); 70% preservative, 72 hour): −
MBC test growth score (Ralstonia pickettii (AU); 80% preservative, 8 hour): −
MBC test growth score (Ralstonia pickettii (AU); 80% preservative, 24 hour): −
MBC test growth score (Ralstonia pickettii (AU); 80% preservative, 48 hour): −
MBC test growth score (Ralstonia pickettii (AU); 80% preservative, 72 hour): −
MBC test growth score (Ralstonia pickettii (AU); 90% preservative, 8 hour): −
MBC test growth score (Ralstonia pickettii (AU); 90% preservative, 24 hour): −
MBC test growth score (Ralstonia pickettii (AU); 90% preservative, 48 hour): −
MBC test growth score (Ralstonia pickettii (AU); 90% preservative, 72 hour): −
MBC test growth score (Ralstonia pickettii (AU); 100% preservative, 8 hour): −
MBC test growth score (Ralstonia pickettii (AU); 100% preservative, 24 hour): −
MBC test growth score (Ralstonia pickettii (AU); 100% preservative, 48 hour): −
MBC test growth score (Ralstonia pickettii (AU); 100% preservative, 72 hour): −
